Source: patent US20210276987A1, “PHARMACEUTICAL AGENTS FOR USE IN SMOKING AND TOBACCO CESSATION” (Washington State University, priority 2018, published 2021)

Tests used:
CYP2C8 = molecular target: T1, CYP2C8 (Homo sapiens, UniProt P10632); conditions: Table 6
T1 sequence (P10632 1-490): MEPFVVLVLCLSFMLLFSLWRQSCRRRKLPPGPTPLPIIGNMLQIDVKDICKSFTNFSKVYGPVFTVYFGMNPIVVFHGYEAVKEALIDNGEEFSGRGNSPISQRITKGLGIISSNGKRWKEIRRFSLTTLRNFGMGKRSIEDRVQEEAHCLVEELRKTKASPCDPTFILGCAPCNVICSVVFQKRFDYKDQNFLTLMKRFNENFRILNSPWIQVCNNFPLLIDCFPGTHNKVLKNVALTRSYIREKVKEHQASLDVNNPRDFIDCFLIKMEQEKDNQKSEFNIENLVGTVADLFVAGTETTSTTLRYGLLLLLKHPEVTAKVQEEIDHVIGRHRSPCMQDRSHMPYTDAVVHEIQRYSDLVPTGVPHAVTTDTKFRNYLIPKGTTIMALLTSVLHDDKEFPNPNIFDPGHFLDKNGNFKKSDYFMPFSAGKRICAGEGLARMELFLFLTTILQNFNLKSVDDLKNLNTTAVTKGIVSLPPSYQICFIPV

UGT1A9 = UGT1A9 (Homo sapiens, UniProt O60656); conditions: Table 10
[1] = tested on: at least two (not named) of CYPs 1A2, 2B6, 2C8, 2C9, 2C19, 2D6, 2E1 and 3A4, relative to CYP2A6; assay: in vitro; conditions: human
CYP2C19 = CYP2C19 (Homo sapiens, UniProt P33261); assay: CYP2C19 inhibition assay, human liver microsomes, omeprazole probe (cocktail); conditions: Table 6
CYP2B6 = molecular target: T2, CYP2B6 (Homo sapiens, UniProt P20813); conditions: Table 6
T2 sequence (P20813 1-491): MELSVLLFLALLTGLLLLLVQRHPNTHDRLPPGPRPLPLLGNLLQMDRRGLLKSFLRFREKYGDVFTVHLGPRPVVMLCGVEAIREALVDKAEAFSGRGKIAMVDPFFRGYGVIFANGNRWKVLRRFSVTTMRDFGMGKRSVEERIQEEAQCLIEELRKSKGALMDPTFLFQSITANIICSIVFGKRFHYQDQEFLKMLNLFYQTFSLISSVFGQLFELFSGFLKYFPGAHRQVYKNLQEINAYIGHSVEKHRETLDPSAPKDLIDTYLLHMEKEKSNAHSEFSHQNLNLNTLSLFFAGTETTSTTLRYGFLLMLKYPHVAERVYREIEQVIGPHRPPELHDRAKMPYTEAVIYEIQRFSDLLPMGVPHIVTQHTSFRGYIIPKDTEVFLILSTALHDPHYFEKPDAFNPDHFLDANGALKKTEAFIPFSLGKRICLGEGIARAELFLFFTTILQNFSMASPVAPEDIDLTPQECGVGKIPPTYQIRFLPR

UGT2B17 = UGT2B17 (Homo sapiens, UniProt O75795); conditions: Table 10
CYP2E1 = CYP2E1 (Homo sapiens, UniProt P05181); conditions: Table 6
UGT2B4 = UGT2B4 (Homo sapiens, UniProt P06133); conditions: Table 10
CYP2A6 = molecular target: T3, CYP2A6 (Homo sapiens, UniProt P11509); assay: biochemical; conditions: IC50 against CYP2A6; human liver microsomes
T3 sequence (P11509 1-494): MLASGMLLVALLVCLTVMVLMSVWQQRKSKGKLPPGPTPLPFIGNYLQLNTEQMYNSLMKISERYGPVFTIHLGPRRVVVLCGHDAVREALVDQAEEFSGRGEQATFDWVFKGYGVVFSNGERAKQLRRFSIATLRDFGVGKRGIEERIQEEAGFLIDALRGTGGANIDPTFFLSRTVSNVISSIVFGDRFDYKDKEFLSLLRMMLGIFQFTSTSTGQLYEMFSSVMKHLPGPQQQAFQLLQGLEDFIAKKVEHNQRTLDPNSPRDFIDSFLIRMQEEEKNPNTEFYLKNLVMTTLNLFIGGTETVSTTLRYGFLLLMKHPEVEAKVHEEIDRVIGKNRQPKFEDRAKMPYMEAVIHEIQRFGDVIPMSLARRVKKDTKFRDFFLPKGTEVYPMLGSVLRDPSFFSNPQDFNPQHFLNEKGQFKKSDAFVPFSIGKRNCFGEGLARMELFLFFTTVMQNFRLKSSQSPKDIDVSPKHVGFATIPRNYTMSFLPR

Chain of UGT2B17 (O75795 24-530): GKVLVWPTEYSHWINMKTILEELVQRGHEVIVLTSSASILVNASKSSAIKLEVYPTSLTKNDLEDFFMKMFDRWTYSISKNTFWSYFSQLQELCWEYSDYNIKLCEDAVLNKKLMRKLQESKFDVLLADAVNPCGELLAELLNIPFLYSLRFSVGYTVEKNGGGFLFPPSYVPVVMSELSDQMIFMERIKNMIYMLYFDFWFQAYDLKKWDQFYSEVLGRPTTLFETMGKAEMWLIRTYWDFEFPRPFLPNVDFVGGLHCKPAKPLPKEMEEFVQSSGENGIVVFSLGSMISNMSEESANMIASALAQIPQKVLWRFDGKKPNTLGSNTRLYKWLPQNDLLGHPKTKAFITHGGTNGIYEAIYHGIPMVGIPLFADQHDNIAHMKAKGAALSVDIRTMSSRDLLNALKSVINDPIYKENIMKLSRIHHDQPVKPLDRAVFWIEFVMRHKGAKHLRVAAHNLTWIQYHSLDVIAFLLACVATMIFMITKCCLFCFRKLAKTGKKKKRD
Chain of UGT2B4 (P06133 24-528): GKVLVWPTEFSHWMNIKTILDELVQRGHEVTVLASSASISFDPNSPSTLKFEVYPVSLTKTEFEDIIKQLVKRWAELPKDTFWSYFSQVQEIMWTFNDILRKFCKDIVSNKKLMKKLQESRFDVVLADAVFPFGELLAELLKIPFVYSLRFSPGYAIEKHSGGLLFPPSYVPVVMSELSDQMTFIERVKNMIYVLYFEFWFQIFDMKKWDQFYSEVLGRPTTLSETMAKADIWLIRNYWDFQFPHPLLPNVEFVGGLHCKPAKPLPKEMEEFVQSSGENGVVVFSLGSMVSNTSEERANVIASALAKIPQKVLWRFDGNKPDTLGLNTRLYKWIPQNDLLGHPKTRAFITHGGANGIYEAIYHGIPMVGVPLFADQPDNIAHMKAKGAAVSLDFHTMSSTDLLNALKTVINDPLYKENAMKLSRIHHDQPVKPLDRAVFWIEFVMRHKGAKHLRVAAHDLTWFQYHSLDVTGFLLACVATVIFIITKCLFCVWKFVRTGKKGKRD
Chain of CYP2E1 (P05181 whole entry): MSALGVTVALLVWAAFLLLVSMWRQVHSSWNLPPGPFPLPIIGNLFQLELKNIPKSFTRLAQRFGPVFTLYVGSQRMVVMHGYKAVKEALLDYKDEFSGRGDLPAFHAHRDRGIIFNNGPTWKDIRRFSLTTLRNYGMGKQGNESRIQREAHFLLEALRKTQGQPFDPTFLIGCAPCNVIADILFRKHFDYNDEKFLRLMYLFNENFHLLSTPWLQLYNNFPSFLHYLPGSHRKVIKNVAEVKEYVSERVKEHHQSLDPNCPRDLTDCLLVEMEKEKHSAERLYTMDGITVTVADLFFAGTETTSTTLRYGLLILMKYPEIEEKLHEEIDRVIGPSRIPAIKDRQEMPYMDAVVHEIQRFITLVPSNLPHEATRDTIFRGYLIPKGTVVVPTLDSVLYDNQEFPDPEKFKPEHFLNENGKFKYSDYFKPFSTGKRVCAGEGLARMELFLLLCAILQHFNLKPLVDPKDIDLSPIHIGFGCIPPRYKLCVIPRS
Chain of CYP2C19 (P33261 whole entry): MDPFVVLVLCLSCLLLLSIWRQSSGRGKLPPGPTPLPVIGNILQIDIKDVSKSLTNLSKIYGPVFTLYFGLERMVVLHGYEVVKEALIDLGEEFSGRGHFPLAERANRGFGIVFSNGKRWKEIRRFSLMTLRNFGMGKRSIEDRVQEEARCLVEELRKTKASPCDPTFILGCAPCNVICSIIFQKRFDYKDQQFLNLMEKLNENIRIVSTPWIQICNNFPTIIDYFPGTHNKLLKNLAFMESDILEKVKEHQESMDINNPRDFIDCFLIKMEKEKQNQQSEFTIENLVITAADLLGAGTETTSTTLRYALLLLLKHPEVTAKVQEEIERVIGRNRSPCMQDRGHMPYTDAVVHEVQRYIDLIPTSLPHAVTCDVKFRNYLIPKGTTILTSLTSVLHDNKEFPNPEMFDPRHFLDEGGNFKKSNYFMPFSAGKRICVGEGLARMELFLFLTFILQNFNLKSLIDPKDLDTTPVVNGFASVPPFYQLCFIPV
Chain of UGT1A9 (O60656 26-530): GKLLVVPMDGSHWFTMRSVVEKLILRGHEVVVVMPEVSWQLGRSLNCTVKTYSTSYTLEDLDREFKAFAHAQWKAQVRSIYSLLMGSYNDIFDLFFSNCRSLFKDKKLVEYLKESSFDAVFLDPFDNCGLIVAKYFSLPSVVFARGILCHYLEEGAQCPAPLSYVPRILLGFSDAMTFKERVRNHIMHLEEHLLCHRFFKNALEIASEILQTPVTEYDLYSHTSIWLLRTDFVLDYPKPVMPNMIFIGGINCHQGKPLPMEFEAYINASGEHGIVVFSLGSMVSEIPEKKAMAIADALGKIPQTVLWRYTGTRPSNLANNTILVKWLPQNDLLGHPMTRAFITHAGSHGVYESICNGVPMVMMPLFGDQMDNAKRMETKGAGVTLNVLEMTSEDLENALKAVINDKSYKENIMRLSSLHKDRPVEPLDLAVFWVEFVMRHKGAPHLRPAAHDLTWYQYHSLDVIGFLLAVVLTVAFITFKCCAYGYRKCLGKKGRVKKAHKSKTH

Compound: COc1ccncc1C#CCN [Compound K, 3-(4-methoxypyridin-3-yl)prop-2-yn-1-amine]
- IC50 ratio CYP2C8/CYP2A6 (CYP2C8): >15
- IC50 ratio UGT1A9/UGT2B10 (UGT1A9): 5
- selectivity ratio at 15 min [1]: < 5
- IC50 ratio CYP2C19/CYP2A6 (CYP2C19): 2.7
- IC50 ratio CYP2B6/CYP2A6 (CYP2B6): 3.2
- IC50 ratio UGT2B17/UGT2B10 (UGT2B17): 26
- IC50 ratio CYP2E1/CYP2A6 (CYP2E1): 5.3
- IC50 ratio UGT2B4/UGT2B10 (UGT2B4): 3.5
- IC50 (CYP2A6): < 10 µM
